Drawing on ChEMBL document CHEMBL1201862, “PubChem BioAssay data set” (2004), this text covers IC50, EC50 and AC50 for six compounds.

In data set [1] the target is T1, Dual specificity protein phosphatase 3 (Homo sapiens, UniProt P51452). The data set can be described thus: SAR VHR1 absorbance Assay for In Vitro dose response studies. [Related pubchem assays (depositor defined):AID1654, AID1661, AID1878, AID1992, AID2004].
The target of data set [2] is T2, Polyadenylate-binding protein 1 (Homo sapiens, UniProt P11940). The data set can be described thus: MLLE binding blockers, Cy5 peptide tracer – biochemical, fluorescence polarization, Cy5-PAM2 peptide, secondary, miRNA deadenylation inhibitor project, dose response (AID 602260). The format is functional. Particulars: read-out: IC50_Mean. In general terms: Fluorescence polarisation rises when a labelled molecule tumbles more slowly, as on binding a larger partner.
T2 sequence (P11940 whole entry): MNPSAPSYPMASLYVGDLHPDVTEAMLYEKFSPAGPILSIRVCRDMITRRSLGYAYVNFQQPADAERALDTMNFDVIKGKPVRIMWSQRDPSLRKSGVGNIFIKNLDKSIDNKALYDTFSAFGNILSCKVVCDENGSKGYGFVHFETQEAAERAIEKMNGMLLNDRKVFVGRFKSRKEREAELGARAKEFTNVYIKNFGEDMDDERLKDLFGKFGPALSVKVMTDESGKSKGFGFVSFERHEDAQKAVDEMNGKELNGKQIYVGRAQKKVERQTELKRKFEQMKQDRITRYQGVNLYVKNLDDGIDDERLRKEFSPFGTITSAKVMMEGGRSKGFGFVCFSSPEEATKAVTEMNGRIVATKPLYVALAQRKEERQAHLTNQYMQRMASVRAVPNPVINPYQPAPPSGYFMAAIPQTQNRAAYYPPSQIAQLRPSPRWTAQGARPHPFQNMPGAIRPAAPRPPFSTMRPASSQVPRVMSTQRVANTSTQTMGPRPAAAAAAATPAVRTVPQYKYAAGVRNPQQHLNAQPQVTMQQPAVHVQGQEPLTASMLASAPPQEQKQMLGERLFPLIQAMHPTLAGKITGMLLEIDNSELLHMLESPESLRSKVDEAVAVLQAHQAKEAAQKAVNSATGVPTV

In data set [3] the target is Tyrosine-protein phosphatase non-receptor type 5 (Homo sapiens, UniProt P54829). The data set can be described thus: PTPN5 enzyme inhibition – biochemical, fluorescence intensity, uHTS hits, confirmation (AID 602372). The format is functional. Particulars: read-out: IC50_Mean.
Chain of Tyrosine-protein phosphatase non-receptor type 5 (P54829 whole entry): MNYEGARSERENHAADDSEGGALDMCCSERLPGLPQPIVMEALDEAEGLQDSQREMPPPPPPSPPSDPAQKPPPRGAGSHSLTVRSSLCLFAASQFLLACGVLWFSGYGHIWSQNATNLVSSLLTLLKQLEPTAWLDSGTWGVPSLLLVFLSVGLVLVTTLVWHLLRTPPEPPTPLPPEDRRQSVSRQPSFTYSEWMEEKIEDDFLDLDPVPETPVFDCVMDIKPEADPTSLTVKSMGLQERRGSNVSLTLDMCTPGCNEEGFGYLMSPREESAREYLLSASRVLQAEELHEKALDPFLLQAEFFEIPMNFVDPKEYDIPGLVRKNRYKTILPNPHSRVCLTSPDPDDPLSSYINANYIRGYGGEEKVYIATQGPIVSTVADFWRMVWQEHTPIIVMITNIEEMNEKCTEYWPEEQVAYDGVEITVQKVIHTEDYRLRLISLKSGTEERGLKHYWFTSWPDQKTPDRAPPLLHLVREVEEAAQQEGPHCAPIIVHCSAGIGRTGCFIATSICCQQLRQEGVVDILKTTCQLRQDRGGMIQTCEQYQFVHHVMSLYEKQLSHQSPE
Data set [4] has as its target T3, Dual specificity protein phosphatase 6 (Rattus norvegicus, UniProt Q64346).
T3 sequence (Q64346 whole entry): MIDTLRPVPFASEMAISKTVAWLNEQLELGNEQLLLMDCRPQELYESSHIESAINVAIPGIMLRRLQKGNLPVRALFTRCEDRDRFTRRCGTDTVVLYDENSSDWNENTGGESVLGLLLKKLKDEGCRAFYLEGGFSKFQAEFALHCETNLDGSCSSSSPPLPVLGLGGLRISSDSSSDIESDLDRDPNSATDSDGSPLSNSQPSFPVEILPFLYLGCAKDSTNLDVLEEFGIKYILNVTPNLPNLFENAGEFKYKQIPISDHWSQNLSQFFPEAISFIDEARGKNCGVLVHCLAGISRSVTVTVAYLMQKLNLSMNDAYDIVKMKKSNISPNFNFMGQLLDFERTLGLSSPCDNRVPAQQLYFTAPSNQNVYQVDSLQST
In words: inhibition of rat DUSP6 enzyme activity – biochemical, in vitro, primary screen (AID 425).

For data set [5], the target named is T1, Dual specificity protein phosphatase 3. The data set can be described thus: VHR phosphatase inhibition, dose response, selectivity assay for STEP inhibitor project, biochemical (AID 602374). The format is functional. The settings on record: read-out: IC50_Mean.
In data set [6] the target is T4, Tyrosine-protein phosphatase non-receptor type 7 (Homo sapiens, UniProt P35236).
T4 sequence (P35236 whole entry): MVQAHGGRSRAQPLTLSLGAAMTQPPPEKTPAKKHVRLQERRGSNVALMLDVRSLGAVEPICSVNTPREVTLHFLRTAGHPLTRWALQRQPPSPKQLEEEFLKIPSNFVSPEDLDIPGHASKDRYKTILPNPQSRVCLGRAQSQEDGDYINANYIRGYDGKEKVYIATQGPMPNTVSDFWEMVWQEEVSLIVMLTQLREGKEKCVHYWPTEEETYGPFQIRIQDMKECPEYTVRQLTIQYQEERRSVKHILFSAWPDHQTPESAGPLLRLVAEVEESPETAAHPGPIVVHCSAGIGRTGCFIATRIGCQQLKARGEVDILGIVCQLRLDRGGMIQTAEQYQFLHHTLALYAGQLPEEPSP
The data set can be described thus: redox-active compounds inhibiting HePTP phosphatase – biochemical, fluorescence, mechanism study (AID 2068). The format is functional.

Data set [7] deals with T1, Dual specificity protein phosphatase 3. In words: SAR VHR1 Fluorescent Assay for In Vitro dose response studies. [Related pubchem assays (depositor defined):AID1654, AID1661, AID1878, AID1992, AID2004, AID2070, AID2085]. The format is functional.
In data set [8] the target is T2, Polyadenylate-binding protein 1. The data set can be described thus: MLLE domain peptide-binding blockers, IC50 – biochemical, fluorescence polarization, FITC-PAM2 peptide, dose response (AID 602259). The format is functional. Particulars: read-out: IC50_Mean.
Data set [9] has as its target T1, Dual specificity protein phosphatase 3. In words: MOA VHR1 Fluorescent secondary assay for identification of redox-state modulating compounds. [Related pubchem assays (depositor defined):AID1654, AID1661, AID1878, AID1957].
In data set [10] the target is Tyrosine-protein phosphatase non-receptor type 11 (Homo sapiens, UniProt Q06124). In words: PTPN11 enzyme inhibitors – biochemical, selectivity assay for STEP inhibitor project, dose response (AID 602367). The format is functional. The settings on record: read-out: IC50_Mean.
Chain of Tyrosine-protein phosphatase non-receptor type 11 (Q06124 whole entry): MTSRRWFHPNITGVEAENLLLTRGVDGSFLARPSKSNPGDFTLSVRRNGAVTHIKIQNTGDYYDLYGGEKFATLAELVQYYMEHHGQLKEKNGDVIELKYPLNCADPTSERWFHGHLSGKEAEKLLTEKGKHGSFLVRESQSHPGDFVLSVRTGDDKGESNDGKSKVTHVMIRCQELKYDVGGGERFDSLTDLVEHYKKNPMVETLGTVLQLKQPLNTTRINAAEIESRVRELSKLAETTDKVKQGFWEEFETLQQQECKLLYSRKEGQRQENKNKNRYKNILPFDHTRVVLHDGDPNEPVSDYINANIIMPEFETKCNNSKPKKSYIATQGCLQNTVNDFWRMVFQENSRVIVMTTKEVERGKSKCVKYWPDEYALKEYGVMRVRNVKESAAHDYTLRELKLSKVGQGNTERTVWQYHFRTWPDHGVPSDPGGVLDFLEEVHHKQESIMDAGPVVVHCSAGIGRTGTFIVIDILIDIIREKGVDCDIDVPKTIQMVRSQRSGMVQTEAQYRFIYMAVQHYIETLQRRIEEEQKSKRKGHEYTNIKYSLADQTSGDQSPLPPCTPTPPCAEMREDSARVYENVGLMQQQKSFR
In data set [11] the target is T1, Dual specificity protein phosphatase 3. In words: VHR1 phosphatase inhibitors, biochemical (AID 1878).
The target is the same in data set [12]. In words: VHR1 phosphatase inhibitors, primary screen, biochemical, absorbance, uHTS (AID 1654).
Data set [13] has as its target T3, Dual specificity protein phosphatase 6. The format is functional.
The target in data set [14] is T5, Type-1 angiotensin II receptor (Homo sapiens, UniProt P30556).
T5 sequence (P30556 whole entry): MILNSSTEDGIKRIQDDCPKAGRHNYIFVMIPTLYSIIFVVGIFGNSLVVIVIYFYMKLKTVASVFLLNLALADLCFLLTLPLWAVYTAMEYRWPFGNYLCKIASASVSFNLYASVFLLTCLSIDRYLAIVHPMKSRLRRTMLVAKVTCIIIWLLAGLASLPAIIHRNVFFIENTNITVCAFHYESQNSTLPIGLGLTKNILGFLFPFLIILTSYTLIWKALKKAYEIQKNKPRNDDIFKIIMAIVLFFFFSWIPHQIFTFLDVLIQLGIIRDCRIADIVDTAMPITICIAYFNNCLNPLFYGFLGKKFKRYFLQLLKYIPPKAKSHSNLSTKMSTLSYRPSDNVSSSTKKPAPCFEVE
The data set can be described thus: agonist activity at AGTR1 – cell-based, uHTS hits, selectivity assay for APJ receptor agonist project, dose response (AID 488865).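 Further: beta-arrestin recruitment to AT1 measured by enzyme fragment complementation luminescence.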 The format is functional.

In the next data set the target is Cytochrome P450 2C19 (Homo sapiens, UniProt P33261). In words: Cytochrome panel assay with activity outcomes. Panel member name: p450-cyp2c19 Compounds with AC50 equal or less than 10 uM are considered active. The format is functional.
Another data set concerns the target Cytochrome P450 2D6 (Homo sapiens, UniProt P10635).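 Further: CYP2D6 member of a cytochrome P450 panel assay.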
The target in data set [15] is Voltage-dependent T-type calcium channel subunit alpha-1H (Homo sapiens, UniProt O95180). In words: inhibition of CACNA1H calcium flux – cell-based, SynthLib3 library, HEK293 Cav3.2, fluorescence (AID 493041). The format is functional.
Data set [16] deals with T6, Alkaline phosphatase, tissue-nonspecific isozyme (Homo sapiens, UniProt P05186).
T6 sequence (P05186 whole entry): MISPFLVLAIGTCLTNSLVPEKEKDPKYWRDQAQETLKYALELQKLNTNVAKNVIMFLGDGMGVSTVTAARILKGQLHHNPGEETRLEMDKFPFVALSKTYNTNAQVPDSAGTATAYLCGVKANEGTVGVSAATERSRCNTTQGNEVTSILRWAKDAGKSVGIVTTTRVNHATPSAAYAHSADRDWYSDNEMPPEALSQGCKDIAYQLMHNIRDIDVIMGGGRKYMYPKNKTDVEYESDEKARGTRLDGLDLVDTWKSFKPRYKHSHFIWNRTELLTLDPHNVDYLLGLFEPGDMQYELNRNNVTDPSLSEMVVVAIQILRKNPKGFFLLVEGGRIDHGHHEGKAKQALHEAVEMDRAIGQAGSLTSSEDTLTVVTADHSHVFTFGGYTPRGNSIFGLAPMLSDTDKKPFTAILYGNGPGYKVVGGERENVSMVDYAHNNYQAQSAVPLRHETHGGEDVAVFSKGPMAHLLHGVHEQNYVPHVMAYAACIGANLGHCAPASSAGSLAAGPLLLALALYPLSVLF
In words: activation of tissue-nonspecific alkaline phosphatase – biochemical, TNAP isozyme, human IAP uHTS hits, selectivity assay for human IAP activator project, dose response (AID 488886).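 Further: potency of compounds raising TNAP activity as a selectivity check on IAP activators.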 The format is functional.

For data set [17], the target named is T7, Intestinal-type alkaline phosphatase (Mus musculus, UniProt P24822). The data set can be described thus: PubChem AID 488785. The format is functional.
T7 sequence (P24822 whole entry): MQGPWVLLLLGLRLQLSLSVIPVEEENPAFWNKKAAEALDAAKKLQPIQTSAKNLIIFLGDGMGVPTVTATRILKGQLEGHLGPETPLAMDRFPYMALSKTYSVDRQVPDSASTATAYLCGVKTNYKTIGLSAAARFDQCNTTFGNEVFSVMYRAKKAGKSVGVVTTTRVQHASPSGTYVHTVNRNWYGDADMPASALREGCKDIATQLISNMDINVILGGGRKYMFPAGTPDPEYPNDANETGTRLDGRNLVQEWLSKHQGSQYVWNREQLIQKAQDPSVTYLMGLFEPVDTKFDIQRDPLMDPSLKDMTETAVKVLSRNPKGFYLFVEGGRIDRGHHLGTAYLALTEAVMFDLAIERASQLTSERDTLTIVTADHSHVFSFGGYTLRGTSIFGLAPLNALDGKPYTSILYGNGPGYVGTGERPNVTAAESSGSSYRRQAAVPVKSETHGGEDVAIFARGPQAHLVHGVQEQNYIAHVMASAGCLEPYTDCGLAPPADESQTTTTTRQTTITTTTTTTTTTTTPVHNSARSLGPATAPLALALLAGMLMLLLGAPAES
In data set [18] the target is T7, Intestinal-type alkaline phosphatase. The data set can be described thus: PubChem AID 488875. The format is functional.
In data set [19] the target is T8, Intestinal-type alkaline phosphatase (Homo sapiens, UniProt P09923). The data set can be described thus: activation of human intestinal alkaline phosphatase – biochemical, dose response (AID 488873). The format is functional.
T8 sequence (P09923 whole entry): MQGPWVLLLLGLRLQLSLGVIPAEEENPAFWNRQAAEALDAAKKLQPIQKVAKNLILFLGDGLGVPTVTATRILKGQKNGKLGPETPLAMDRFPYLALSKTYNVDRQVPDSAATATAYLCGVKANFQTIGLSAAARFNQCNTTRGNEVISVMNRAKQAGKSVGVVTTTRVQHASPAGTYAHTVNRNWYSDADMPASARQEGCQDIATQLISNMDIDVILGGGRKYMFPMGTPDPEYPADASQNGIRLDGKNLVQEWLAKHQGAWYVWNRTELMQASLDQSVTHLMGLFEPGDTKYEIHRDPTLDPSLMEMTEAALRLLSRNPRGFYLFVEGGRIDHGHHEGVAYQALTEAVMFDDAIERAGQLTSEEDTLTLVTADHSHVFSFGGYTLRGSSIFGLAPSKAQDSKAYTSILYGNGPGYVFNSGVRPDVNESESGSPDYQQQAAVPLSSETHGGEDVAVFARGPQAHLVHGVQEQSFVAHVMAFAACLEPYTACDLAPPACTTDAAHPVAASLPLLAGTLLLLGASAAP
For data set [20], the target named is T6, Alkaline phosphatase, tissue-nonspecific isozyme. The data set can be described thus: TNAP enzyme inhibition by screening hits, dose response, selectivity assay for mouse IAP inhibitor project, biochemical, human TNAP, uHTS hits (AID 488906). The format is functional.
For data set [21], the target named is T8, Intestinal-type alkaline phosphatase. The data set can be described thus: activation of human intestinal alkaline phosphatase – biochemical, luminescent, uHTS hits, set 2, dose response (AID 488817).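 Further: potency of activators that raise enzyme activity.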 The format is functional.
For data set [22] the target is unchanged. The data set can be described thus: human intestinal alkaline phosphatase activators, dose response, biochemical, luminescence, uHTS hits (AID 463120). The format is functional.
Data set [23] deals with Lysine-specific demethylase 4A (Homo sapiens, UniProt O75164). In words: inhibition of JMJD2A H3K9me3 demethylation – biochemical, DELFIA europium, cherry-picked samples, selectivity assay for GASC-1 inhibitor project, dose response (AID 488840).
In data set [24] the target is Lysine-specific demethylase 4C (Homo sapiens, UniProt Q9H3R0). In words: inhibition of JMJD2C H3K9me3 demethylation – biochemical, DELFIA europium, cherry-picked samples, dose response (AID 488835). The format is functional.
Chain of Lysine-specific demethylase 4C (Q9H3R0 whole entry): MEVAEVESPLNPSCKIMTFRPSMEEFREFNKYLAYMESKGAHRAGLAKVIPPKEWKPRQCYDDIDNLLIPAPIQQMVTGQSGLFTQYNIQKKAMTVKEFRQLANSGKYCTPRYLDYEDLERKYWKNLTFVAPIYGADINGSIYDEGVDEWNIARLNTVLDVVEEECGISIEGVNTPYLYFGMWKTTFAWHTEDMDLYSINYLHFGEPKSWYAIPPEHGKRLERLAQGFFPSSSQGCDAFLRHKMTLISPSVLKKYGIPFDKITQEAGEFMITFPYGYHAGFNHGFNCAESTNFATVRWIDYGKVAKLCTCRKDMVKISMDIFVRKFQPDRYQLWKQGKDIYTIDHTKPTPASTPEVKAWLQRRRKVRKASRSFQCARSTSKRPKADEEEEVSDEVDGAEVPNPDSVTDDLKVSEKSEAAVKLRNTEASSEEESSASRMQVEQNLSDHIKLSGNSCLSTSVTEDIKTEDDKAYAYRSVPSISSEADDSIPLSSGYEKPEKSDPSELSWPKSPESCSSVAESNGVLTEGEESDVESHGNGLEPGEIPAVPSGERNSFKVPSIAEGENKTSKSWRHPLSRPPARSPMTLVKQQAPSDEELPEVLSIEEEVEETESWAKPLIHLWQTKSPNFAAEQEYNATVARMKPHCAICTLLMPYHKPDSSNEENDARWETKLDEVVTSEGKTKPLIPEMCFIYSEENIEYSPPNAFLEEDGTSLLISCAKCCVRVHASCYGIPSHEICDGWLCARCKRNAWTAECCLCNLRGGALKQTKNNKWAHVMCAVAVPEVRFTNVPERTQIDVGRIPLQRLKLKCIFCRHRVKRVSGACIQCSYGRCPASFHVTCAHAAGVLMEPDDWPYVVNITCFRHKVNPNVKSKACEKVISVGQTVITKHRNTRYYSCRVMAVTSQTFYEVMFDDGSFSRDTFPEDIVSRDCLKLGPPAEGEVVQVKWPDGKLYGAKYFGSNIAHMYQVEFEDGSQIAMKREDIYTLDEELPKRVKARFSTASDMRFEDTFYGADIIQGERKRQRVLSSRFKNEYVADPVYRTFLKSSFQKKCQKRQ

“And” between values parts separate entries of the source, which are not always exact repeats. Identical values can stand only once. The source made the active and inactive calls.

T1 sequence (P51452 whole entry): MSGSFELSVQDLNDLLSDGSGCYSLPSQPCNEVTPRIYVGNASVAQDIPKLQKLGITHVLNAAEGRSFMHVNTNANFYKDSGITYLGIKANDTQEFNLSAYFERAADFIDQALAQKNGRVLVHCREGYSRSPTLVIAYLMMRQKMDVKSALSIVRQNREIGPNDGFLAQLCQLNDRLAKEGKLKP
Chain of Cytochrome P450 2D6 (P10635 whole entry): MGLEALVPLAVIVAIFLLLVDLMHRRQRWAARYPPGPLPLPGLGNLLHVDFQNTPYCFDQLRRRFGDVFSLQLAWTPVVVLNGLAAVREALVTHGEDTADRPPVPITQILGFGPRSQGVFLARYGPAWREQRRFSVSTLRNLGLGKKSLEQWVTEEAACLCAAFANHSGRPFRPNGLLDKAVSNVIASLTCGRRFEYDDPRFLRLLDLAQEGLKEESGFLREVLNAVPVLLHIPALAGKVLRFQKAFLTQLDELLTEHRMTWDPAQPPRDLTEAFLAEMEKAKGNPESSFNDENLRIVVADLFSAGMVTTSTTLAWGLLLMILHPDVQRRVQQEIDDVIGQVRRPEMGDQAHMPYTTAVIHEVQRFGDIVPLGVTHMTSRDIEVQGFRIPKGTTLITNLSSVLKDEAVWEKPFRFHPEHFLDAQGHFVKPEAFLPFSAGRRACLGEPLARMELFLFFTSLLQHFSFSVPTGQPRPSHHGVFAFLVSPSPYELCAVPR

Regarding `COc1cc(C(=S)N2CCCCC2)ccc1O`, the IC50 was 0.958 µM (active) in [1]; > 66 µM (inactive) in [2]; 5.11 µM (active) in [3]; > 158 µM (not active) in data set [4]; 0.331 µM (active) in [5]; 84.6 nM (active) and 3.16 µM (active) in data set [6]. Moreover, the IC50 is 366 nM (active) and > 100 µM (inactive) in [7]; > 66 µM (inactive) in [8]; 127 nM (active) and 5.55 µM (active) in [9]; 1.2 µM (active) in [10]; 3.34 µM (active) in data set [11]; 1.68 µM (active) in data set [12]. Besides, in data set [13], the IC50 is > 100 µM (inactive).

A word on the EC50: it is the concentration at which the effect is half-maximal. As for `COC(=O)CCCC1=CC2=CC(=O)C(C)(OC(=O)c3cccs3)C(=O)C2=CN1C1CCCCC1` (stereo unspecified), the EC50 in data set [14] was > 100 µM (inactive).

The AC50 is the concentration at which the activity in the assay is half-maximal. As to `CC1=N/C(=C\c2ccc([N+](=O)[O-])cc2)C(=O)N1c1ccc(Cl)cc1`, the concentration at half-maximal activity (AC50) result at Cytochrome P450 2C19 and at Cytochrome P450 2D6 was “inconclusive” throughout.

Take `CC(Cc1nnc(NC(=O)COc2ccc(Cl)cc2Cl)o1)CC(C)(C)C` (stereo unspecified): the EC50 in [15] is 10 µM (active).

With `CCn1nc(C)c(CN2CCC(C(=O)Nc3cccc(-c4cccc(F)c4)c3)CC2)c1C`, the EC50 in data set [16] is 54 µM (active); in data set [18] it was 49.9 µM (active); in data set [19] it was > 100 µM (inactive); in data set [21], 52.9 µM (active); in data set [22], 59.8 µM (active). The IC50 in [17] was 8.35 µM (active); in data set [20], 23.4 µM (active).

Regarding `Cn1c(=O)c2nc(O)cnc2n(C)c1=S`, the AC50 in data set [23] is 45.3 µM (active); in data set [24] it was 4.26 µM (active).
